# Experimental data as given in ChEMBL document CHEMBL1201862, “PubChem BioAssay data set” (2004).
# The source made the active and inactive calls.
# Legend:
# [1] = target: Adenosylmethionine-8-amino-7-oxononanoate aminotransferase (Mycobacterium tuberculosis, UniProt P9WQ81); assay: Mycobacterium tuberculosis BioA enzyme inhibitor Measured in Biochemical System Using Plate Reader - 2163-02_Inhibitor_Dose_CherryPick_Activity.; format: functional, Mycobacterium tuberculosis UT205
# [2] = target: Genome polyprotein (dengue virus type 2, UniProt P29990); assay: Dengue-2 NS5 methyltransferase inhibitors, primary screen, biochemical, confirmation dose response (AID 588689); format: functional
# [3] = target: T1, Tyrosyl-DNA phosphodiesterase 2 (Homo sapiens, UniProt O95551); assay: human TDP2 enzyme inhibitors, dose response, biochemical, epi absorbance, IC50 (AID 743297)
# T1 sequence (O95551 whole entry): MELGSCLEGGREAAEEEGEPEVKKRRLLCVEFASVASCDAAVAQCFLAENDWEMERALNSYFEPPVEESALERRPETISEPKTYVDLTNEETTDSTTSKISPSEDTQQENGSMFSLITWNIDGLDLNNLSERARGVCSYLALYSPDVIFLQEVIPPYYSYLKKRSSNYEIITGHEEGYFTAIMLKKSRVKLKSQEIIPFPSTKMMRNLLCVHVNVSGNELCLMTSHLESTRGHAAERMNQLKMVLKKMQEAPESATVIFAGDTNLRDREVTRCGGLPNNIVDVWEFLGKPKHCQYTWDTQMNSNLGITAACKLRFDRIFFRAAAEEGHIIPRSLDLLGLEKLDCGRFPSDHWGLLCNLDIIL
# [4] = system: Vero; assay: Vero cell cytotoxicity, cytotoxicity control for flavivirus capping enzyme inhibitors (AID 588742); format: functional; conditions: Chlorocebus sabaeus
# [5] = target: T2, Hexokinase HKDC1 (Homo sapiens, UniProt Q2TB90); assay: HKDC1 hexokinase inhibitors, dose response, biochemical, W721R variant (AID 504729); format: functional
# T2 sequence (Q2TB90 whole entry): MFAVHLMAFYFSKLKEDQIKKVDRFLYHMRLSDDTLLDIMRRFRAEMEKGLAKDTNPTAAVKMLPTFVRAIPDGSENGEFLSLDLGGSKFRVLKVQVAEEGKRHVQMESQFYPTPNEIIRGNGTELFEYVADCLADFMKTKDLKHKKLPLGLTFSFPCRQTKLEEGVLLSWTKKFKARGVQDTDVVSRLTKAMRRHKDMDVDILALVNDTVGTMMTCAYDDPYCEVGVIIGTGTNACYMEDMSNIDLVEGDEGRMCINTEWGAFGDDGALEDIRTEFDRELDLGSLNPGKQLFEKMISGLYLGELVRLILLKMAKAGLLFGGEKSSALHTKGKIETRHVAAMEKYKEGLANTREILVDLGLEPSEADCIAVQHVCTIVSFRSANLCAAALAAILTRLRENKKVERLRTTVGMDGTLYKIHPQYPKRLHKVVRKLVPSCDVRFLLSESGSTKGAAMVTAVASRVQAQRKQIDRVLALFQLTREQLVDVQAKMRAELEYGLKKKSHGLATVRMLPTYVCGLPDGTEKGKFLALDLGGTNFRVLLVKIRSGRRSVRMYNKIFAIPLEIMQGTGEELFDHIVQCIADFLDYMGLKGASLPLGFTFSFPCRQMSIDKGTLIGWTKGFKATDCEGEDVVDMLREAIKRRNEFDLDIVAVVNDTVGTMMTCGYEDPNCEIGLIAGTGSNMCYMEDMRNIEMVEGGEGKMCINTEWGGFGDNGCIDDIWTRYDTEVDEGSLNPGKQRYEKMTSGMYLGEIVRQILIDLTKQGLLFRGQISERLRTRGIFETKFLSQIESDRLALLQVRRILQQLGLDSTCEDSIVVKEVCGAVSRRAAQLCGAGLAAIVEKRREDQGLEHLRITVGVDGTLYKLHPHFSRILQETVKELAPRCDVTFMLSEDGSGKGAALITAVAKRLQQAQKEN
# [6] = target: Dual specificity protein phosphatase 3 (Homo sapiens, UniProt P51452); assay: VHR phosphatase inhibition, dose response, selectivity assay for STEP inhibitor project, biochemical (AID 602374); format: functional; conditions: read-out: IC50_Mean
# [7] = target: Tyrosine-protein phosphatase non-receptor type 11 (Homo sapiens, UniProt Q06124); assay: SHP2 phosphatase inhibition, dose response, selectivity assay for STEP inhibitor project, biochemical (AID 602367); format: functional; conditions: read-out: IC50_Mean
# [8] = target: Tyrosine-protein phosphatase non-receptor type 5 (Homo sapiens, UniProt P54829); assay: STEP phosphatase inhibitors, confirmation, biochemical, fluorescence intensity, uHTS hits (AID 602372); format: functional; conditions: read-out: IC50_Mean
# [9] = AlphaScreen signal interference compounds, dose response, artefact control for ARNT-TACC3 interaction inhibitor project, biochemical, luminescence, cherry-pick (AID 651705); format: functional;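 further: AlphaScreen bead proximity signal that flags compounds interfering with the detection technology; potency reflects signal decrease which marks the compound as an assay artifact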
# [10] = target: T3, Type-1 angiotensin II receptor (Homo sapiens, UniProt P30556); assay: AT1 receptor antagonists, dose response, selectivity assay for APJ receptor antagonist project, cell-based, uHTS hits (AID 463214); format: functional;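 further: antagonist potency against angiotensin II stimulated AT1 response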
# T3 sequence (P30556 whole entry): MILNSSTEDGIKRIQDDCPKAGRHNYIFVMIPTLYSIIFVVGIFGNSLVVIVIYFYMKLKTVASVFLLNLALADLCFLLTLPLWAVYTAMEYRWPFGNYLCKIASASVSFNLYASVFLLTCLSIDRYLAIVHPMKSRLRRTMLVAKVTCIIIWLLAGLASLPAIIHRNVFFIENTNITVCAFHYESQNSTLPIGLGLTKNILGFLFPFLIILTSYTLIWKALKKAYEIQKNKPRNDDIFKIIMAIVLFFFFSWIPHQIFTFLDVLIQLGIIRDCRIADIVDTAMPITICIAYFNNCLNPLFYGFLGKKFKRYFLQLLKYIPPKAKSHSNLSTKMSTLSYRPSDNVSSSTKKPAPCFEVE
# [11] = growth suppression of PTEN-null colon cells, dose response, cell-based, HCT116 PTEN knockout (AID 1047); format: functional;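 further: HCT116 colon tumor cells with PTEN knocked out; cells exposed to compound for 60 hours before readout; potency for loss of cell viability measured by luminescence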
# [12] = cells; format: functional
# [13] = target: Beta-galactosidase (Escherichia coli, UniProt Q8VNN2); assay: PubChem AID 485352; format: functional
# [14] = Vero E6 cell cytotoxicity, dose response, cytotoxicity control for non-replicating M. tuberculosis project, secondary assay (AID 492998); format: functional, VeroE6; conditions: Vero C1008
# [15] = growth suppression of beta-catenin-knockout colon cells, dose response, cell-based, HCT116, human colon tumor (AID 1045); format: functional;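 further: HCT116 colon tumor cells with beta catenin knocked out; cells exposed to compound for 60 hours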
# [16] = THP-1 cell cytotoxicity, dose response, cytotoxicity control for non-replicating M. tuberculosis project (AID 489025); format: functional
# [17] = ARNT/TACC3 interaction disruptors, potency, confirmation, biochemical, AlphaScreen, cherry-picked samples (AID 651703); format: functional, Homo sapiens;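 further: His-tagged ARNT PAS-B domain paired with GST-TACC3 E629A dimer coactivator fragment; potency of inhibitors that break up the complex and lower AlphaScreen signal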
# [18] = target: DNA (cytosine-5)-methyltransferase 1 (Homo sapiens, UniProt P26358); assay: DNMT1 methyltransferase inhibitors, confirmation, biochemical, fluorescent molecular beacon (AID 602386); format: functional
# [19] = THP-1 cell cytotoxicity, dose response, cytotoxicity control for Vif-APOBEC3G degradation inhibitor project, THP-1 cells (AID 1117359); format: functional; conditions: Human immunodeficiency virus 1, THP-1
# [20] = target: T4, Rac GTPase-activating protein 1 (Homo sapiens, UniProt Q9H0H5); assay: MgcRacGAP GTPase-activating activity inhibitors, confirmation, biochemical, ADP Hunter fluorescence, primary and confirmatory (AID 624330); format: functional
# T4 sequence (Q9H0H5 whole entry): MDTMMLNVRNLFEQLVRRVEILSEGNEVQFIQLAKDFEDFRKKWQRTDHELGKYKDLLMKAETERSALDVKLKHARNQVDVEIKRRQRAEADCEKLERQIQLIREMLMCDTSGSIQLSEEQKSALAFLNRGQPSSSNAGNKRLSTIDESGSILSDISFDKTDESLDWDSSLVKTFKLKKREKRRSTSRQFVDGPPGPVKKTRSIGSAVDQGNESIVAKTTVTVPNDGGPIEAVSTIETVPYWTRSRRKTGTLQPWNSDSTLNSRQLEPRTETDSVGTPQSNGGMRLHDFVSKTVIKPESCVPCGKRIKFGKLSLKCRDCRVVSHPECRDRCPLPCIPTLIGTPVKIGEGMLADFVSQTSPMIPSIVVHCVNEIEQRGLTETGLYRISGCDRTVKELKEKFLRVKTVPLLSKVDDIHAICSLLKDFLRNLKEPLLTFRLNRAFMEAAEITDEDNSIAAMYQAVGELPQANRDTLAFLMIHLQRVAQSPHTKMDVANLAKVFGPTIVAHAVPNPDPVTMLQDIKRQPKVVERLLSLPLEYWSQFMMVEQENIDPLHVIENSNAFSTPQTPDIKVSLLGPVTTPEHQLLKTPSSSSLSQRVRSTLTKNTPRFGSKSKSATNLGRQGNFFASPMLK
# [21] = system: INS1; assay: beta cell apoptosis inhibitors, cytokine rescue, dose response, luminescence, retest (AID 449756); format: functional, cell-based; conditions: Rattus norvegicus;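 further: cell death triggered by IL-1 beta plus TNF-alpha plus IFN-gamma mixture; protective hits raise ATP signal compared with cytokine alone wells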
# [22] = system: Streptococcus sp. 'group A'; assay: growth inhibition of control SK(-) GAS strain, dose response, counter-screen for streptokinase expression inhibitor project, luminescence, kanamycin, BacTiterGlo, confirmation (AID 1900); format: functional, organism-based
# [23] = system: Streptococcus; assay: Group A Streptococcus viability loss, dose response, counter-screen for streptokinase expression inhibitor project, luminescence, BacTiterGlo (AID 1915); format: functional, organism-based;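 further: potency for reduction of bacterial viability or growth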
# [24] = target: T5, Phospholipase D1 (Homo sapiens, UniProt Q13393); assay: PLD1 inhibitor potency in cells, dose response (AID 602151); format: functional;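 further: cellular PLD1 assay in Calu-1 cells stimulated with PMA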
# T5 sequence (Q13393 whole entry): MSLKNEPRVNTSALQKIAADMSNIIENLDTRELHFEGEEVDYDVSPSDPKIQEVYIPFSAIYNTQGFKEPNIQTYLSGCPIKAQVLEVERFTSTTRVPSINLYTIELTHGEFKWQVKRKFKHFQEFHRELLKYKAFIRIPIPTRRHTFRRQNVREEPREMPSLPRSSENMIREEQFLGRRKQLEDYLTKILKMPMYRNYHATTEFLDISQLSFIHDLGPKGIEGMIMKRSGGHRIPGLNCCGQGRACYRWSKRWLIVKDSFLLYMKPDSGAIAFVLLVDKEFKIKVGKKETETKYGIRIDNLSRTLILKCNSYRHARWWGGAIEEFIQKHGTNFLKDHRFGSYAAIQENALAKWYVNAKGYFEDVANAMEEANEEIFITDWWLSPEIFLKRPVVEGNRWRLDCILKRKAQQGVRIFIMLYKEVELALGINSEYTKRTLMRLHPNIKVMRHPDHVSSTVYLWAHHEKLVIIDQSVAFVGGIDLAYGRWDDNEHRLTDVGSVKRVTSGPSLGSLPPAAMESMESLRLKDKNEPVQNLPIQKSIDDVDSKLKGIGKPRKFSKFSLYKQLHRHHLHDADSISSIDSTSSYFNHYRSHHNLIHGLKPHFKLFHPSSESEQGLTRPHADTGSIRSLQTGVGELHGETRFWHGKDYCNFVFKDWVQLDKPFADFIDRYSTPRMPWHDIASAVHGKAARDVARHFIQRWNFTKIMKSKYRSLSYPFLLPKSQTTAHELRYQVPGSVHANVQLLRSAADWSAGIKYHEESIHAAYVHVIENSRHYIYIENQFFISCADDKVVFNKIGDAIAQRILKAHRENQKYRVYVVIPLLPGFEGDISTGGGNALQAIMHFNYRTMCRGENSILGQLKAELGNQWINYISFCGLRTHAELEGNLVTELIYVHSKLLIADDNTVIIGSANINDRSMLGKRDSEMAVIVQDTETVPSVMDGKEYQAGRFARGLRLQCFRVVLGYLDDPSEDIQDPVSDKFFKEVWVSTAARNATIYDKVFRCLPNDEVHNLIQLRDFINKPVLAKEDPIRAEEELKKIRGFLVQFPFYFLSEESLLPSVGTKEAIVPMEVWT
# [25] = target: Phospholipase D2 (Homo sapiens, UniProt O14939); assay: PLD2 inhibitor potency in cells, dose response (AID 602147); format: functional;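 further: cellular assay in HEK293 cells overexpressing GFP-tagged PLD2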
# Phospholipase D2, sequence (O14939 whole entry): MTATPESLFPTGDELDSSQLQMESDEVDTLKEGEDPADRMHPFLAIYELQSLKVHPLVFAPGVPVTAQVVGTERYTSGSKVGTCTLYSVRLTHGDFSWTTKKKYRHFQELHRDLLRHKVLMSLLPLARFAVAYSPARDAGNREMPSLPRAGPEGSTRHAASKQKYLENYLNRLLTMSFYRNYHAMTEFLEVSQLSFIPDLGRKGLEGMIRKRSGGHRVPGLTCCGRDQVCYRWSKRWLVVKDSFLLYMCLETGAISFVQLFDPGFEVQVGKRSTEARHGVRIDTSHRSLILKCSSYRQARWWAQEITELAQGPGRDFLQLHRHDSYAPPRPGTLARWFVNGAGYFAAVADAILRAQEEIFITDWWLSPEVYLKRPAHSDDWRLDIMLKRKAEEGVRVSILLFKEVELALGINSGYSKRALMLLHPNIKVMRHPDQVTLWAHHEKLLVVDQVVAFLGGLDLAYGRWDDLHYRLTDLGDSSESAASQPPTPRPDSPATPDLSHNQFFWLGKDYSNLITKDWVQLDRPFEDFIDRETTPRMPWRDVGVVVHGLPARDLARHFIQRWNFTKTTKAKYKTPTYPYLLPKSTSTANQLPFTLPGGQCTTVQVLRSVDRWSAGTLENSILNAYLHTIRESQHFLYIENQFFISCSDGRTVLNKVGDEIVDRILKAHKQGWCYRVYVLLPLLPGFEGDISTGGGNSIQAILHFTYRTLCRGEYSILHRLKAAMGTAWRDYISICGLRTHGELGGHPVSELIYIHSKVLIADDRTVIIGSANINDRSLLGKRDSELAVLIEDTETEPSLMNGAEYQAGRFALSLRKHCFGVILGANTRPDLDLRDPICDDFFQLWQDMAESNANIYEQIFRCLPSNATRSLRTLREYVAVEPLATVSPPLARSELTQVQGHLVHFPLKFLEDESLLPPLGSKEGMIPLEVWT
# Adenosylmethionine-8-amino-7-oxononanoate aminotransferase, sequence (P9WQ81 whole entry): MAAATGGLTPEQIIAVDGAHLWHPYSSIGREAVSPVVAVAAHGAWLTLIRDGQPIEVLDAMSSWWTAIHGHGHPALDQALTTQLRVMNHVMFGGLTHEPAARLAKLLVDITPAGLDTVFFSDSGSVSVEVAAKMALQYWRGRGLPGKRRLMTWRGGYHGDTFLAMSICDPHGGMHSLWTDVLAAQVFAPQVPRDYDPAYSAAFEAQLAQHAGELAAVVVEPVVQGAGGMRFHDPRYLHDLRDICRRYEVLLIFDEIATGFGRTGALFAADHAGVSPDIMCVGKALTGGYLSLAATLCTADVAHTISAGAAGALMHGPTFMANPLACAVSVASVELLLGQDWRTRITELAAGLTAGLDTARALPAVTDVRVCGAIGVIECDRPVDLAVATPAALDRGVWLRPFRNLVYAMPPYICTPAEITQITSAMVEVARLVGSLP
# Genome polyprotein, sequence (P29990 2492-3391 limits assumed): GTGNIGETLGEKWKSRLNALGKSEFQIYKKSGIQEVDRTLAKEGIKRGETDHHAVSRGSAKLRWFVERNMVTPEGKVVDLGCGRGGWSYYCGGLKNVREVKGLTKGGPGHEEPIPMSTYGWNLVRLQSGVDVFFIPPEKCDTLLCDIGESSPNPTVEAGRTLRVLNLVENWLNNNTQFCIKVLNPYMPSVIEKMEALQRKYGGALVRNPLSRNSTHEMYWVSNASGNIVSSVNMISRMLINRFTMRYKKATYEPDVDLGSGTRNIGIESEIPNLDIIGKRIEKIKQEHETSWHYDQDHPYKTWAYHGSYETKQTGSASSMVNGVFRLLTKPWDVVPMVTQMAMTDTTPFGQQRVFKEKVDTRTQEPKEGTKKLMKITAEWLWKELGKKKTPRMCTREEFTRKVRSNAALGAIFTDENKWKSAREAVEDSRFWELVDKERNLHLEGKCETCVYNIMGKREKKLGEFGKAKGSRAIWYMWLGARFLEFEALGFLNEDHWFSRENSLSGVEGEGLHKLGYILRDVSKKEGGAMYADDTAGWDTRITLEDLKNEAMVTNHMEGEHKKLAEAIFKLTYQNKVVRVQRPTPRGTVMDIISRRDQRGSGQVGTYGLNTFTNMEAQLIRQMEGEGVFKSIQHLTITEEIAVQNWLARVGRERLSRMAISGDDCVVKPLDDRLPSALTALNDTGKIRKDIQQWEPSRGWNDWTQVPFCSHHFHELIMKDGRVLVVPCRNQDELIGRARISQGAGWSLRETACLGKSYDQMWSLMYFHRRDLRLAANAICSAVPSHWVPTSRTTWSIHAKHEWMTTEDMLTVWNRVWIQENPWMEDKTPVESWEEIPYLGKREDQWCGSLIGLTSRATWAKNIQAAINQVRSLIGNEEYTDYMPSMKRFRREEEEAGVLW
# Dual specificity protein phosphatase 3, sequence (P51452 whole entry): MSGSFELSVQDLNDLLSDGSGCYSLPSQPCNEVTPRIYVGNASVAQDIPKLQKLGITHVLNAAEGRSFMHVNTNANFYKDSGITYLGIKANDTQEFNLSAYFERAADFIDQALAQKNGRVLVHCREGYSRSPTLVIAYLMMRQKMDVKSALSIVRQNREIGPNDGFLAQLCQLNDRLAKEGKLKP
# Tyrosine-protein phosphatase non-receptor type 11, sequence (Q06124 whole entry): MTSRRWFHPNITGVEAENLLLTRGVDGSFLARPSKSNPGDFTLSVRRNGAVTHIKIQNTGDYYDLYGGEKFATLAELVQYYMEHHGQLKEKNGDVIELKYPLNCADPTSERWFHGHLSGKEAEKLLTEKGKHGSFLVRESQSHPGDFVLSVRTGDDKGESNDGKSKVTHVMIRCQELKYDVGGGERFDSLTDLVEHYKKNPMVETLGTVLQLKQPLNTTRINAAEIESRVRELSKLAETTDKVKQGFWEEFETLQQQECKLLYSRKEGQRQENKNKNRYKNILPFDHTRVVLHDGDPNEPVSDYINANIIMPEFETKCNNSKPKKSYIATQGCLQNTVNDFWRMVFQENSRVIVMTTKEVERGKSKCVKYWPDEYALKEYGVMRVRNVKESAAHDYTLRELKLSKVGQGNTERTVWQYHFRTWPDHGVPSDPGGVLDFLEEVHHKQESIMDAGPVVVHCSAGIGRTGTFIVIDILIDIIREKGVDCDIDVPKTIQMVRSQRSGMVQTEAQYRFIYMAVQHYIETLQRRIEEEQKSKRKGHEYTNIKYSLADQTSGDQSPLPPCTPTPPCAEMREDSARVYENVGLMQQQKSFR
# Beta-galactosidase, sequence (Q8VNN2 whole entry): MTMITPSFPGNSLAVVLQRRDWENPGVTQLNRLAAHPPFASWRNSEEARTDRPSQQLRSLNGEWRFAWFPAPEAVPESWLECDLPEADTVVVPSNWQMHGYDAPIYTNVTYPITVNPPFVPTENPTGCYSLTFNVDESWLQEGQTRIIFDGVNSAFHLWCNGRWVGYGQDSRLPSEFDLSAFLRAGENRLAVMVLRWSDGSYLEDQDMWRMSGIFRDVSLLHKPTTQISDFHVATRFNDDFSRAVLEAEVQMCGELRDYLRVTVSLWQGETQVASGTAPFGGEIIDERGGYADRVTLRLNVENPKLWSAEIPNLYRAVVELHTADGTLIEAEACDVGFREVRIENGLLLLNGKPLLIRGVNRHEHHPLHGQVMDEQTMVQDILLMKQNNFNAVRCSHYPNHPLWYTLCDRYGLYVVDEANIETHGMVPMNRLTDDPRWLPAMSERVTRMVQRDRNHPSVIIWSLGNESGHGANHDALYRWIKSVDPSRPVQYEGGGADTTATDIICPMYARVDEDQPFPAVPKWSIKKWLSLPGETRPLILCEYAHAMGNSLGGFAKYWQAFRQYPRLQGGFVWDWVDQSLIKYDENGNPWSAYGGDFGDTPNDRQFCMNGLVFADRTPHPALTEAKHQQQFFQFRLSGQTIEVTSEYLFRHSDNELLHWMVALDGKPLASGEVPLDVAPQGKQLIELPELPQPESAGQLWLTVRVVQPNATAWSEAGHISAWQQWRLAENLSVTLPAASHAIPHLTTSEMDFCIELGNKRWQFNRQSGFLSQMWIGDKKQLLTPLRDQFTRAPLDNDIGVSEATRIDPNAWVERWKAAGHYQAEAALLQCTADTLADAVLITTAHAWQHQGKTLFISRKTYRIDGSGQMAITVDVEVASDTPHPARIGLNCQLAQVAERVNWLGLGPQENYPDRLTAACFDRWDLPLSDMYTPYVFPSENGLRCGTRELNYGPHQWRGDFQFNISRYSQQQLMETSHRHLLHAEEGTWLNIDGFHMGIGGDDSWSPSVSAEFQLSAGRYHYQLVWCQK
# Tyrosine-protein phosphatase non-receptor type 5, sequence (P54829 whole entry): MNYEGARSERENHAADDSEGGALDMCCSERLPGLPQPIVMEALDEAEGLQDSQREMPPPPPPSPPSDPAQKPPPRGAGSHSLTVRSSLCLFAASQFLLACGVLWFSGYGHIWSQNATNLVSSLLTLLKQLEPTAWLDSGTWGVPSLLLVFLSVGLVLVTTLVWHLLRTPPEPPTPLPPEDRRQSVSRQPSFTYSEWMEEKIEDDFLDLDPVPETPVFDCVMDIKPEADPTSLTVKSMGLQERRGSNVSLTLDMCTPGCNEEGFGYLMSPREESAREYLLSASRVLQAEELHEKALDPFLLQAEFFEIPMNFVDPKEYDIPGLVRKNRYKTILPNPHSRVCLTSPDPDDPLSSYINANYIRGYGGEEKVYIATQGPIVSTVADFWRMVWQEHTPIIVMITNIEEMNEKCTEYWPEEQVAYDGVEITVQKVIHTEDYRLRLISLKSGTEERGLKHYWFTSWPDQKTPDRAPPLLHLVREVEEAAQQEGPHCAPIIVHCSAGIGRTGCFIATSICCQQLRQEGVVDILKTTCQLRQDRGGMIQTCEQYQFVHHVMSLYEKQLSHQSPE
structure (smiles),measurement,setting,value
CC(C)n1c(N2CCN(C(=O)c3cccs3)CC2)nc2ccccc21,AC50,[1],10.6 µM (active)
Cc1ccc(-n2c3nc(=O)[nH]c(=O)c-3cc3cc([N+](=O)[O-])ccc32)cc1,IC50,[2],22.9 µM (active)
same,IC50,[3],> 128 µM (inactive)
same,CC50,[4],> 40 µM (active)
same,IC50,[5],10.3 µM (active)
COc1ccccc1Nc1ccc([N+](=O)[O-])cc1N,IC50,[6],3.2 µM (active)
same,IC50,[7],8.01 µM (active)
same,IC50,[8],34.5 µM (inactive)
O=C(CSc1ccc2nnc(-c3ccccn3)n2n1)NCc1ccco1,AC50,[9],99 µM (active)
O=C1c2cccc3c([N+](=O)[O-])ccc(c23)C(=O)N1c1ccc(Cl)cn1,IC50,[10],15.5 µM (active)
same,EC50,[11],1.58 µM (active)
same,IC50,[12],8.7 µM (active)
same,EC50,[13],> 40 µM (inactive)
same,CC50,[14],10.1 µM (active)
same,EC50,[15],0.905 µM (active)
same,CC50,[16],1.34 µM (active)
Cc1cccc(-c2nnc(SCC#N)n2-c2ccccc2)c1,AC50,[1],3.22 µM (active)
CCOc1ccc(-c2cnc(N)n2C)cc1,AC50,[17],93.9 µM (active)
COc1cc(/C=C/C=C2/CC/C(=C/C=C/c3ccc(O)c(OC)c3)C2=O)ccc1O,IC50,[18],8.22 µM (active)
same,CC50,[19],24.1 µM (active)
same,IC50,[20],99.4 µM (active)
O=C1C(Cl)=C(Nc2ccc3c[nH]nc3c2)C(=O)c2ccccc21,AC50,[21],3.56 µM (active)
same,CC50,[19],2.49 µM (active)
same,EC50,[22],0.928 µM (active)
same,CC50,[4],9.81 µM (active)
same,EC50,[23],15.1 µM (active)
O=C(c1ccc(Cl)cc1)N(CCN1CCC(n2c(=O)[nH]c3ccccc32)CC1)C(=O)c1ccc(Cl)cc1,IC50,[24],0.21 µM (active)
same,IC50,[25],2.7 µM (active)
O=C(NCCN1CCC(n2c(=O)[nH]c3ccccc32)CC1)NCc1cccc(F)c1,IC50,[24],0.107 µM (active)
same,IC50,[25],1.8 µM (active)
O=C(NCCN1CCC2(CC1)C(=O)NCN2c1cccc(Br)c1)c1ccc2ccccc2c1,IC50,[24],4.6 µM (active)
same,IC50,[25],0.68 µM (active)
